Results reported in patent publication US20230203043A1, “NOVEL IMIDAZOPYRAZINE DERIVATIVES” (Hoffmann-La Roche Inc., priority 2020, published 2023).
Counter-ions that a name gives are not always drawn.

What follows are compounds tested on Acinetobacter baumannii ATCC17961 (assay: Antimicrobial susceptibility testing: 90% growth inhibitory concentration (IC90) determination in Iso-Sensitest broth, OD600 growth). Conditions: Acinetobacter baumannii, ATCC17961, 16 h, read-out: A. baumannii ATCC 17961 IC90 (uM), strain ATCC 17961, OD600 growth over 16 h.
Format: cell-based
In short: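 Twofold compound dilutions (e.g. 50 to 0.097 μM final) in Iso-Sensitest broth with ~5×10^(5) CFU/ml, 35±2 °C. OD600 read every 20 min over 16 h; IC90 from growth inhibition during logarithmic phase.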

SMILES | IC90 [µM]
N#CCn1cc(-c2cnc3c(Nc4ccc(C(=O)NCC(=O)N5CC[C@@H](N)C5)c(Cl)c4)nccn23)c(C(F)(F)F)n1 [Example 663, N-[2-[(3R)-3-aminopyrrolidin-1-yl]-2-oxo-ethyl]-2-chloro-4-[[3-[1-(cyanomethyl)-3-(trifluoromethyl)pyrazol-4-yl]imidazo[1,2-a]pyrazin-8-yl]amino]benzamide formate] | 0.285
C[C@@H](NC(=O)c1ccc(Nc2nccn3c(-c4cn(CC#N)nc4C(F)(F)F)cnc23)cc1Cl)C(=O)N1CC[C@H](N)C1 [Example 665, N-[(1R)-2-[(3S)-3-aminopyrrolidin-1-yl]-1-methyl-2-oxo-ethyl]-2-chloro-4-[[3-[1-(cyanomethyl)-3-(trifluoromethyl)pyrazol-4-yl]imidazo[1,2-a]pyrazin-8-yl]amino]benzamide formate] | 0.29
CCc1cc(Nc2nccn3c(-c4cn(CC(F)F)nc4C(F)(F)F)cnc23)ccc1C(=O)NCC(=O)N1CCC(N)CC1 [Example 666, N-[2-(4-amino-1-piperidyl)-2-oxo-ethyl]-4-[[3-[1-(2,2-difluoroethyl)-3-(trifluoromethyl)pyrazol-4-yl]imidazo[1,2-a]pyrazin-8-yl]amino]-2-ethyl-benzamide formate] | 0.291
CCc1cc(Nc2nccn3c(-c4cn(CC(F)F)nc4C(F)(F)F)cnc23)ccc1C(=O)NCC(=O)NCCN(C)C [Example 668, 4-[[3-[1-(2,2-difluoroethyl)-3-(trifluoromethyl)pyrazol-4-yl]imidazo[1,2-a]pyrazin-8-yl]amino]-N-[2-[2-(dimethylamino)ethylamino]-2-oxo-ethyl]-2-ethyl-benzamide formate] | 0.294
CCc1cc(Nc2nccn3c(-c4cn(C5CC(F)(F)C5)nc4C(F)(F)F)cnc23)ccc1C(=O)NCCOCCCN [Example 670, N-(2-(3-aminopropoxy)ethyl)-4-((3-(1-(3,3-difluorocyclobutyl)-3-(trifluoromethyl)-1H-pyrazol-4-yl)imidazo[1,2-a]pyrazin-8-yl)amino)-2-ethylbenzamide formate] | 0.304
CCc1cc(Nc2nccn3c(-c4cn(C5CCC5)nc4C(F)(F)F)cnc23)ccc1C(=O)NCC1CC1N (stereo not shown) [Example 671, N-((2-aminocyclopropyl)methyl)-4-((3-(1-cyclobutyl-3-(trifluoromethyl)-1H-pyrazol-4-yl)imidazo[1,2-a]pyrazin-8-yl)amino)-2-ethylbenzamide formate] | 0.309

Same assay, conditions: Acinetobacter baumannii, ATCC17961, 16 h, strain ATCC 17961, OD600 growth over 16 h, read-out: A. baumannii ATCC 17961 IC90

SMILES | IC90 [µM]
Cc1cc(Nc2nccn3c(-c4cn(CC(F)F)nc4C(F)(F)F)cnc23)cc(F)c1C(=O)N1CCN(C(=O)[C@H](C)N)CC1 [Example 664, (S)-2-amino-1-(4-(4-((3-(1-(2,2-difluoroethyl)-3-(trifluoromethyl)-1H-pyrazol-4-yl)imidazo [1,2-a]pyrazin-8-yl)amino)-2-fluoro-6-methylbenzoyl)piperazin-1-yl)propan-1-one] | 0.286
CCc1cc(Nc2nccn3c(-c4cn(CC(F)F)nc4C(F)(F)F)cnc23)ccc1C(=O)NCCNC(=O)[C@@H]1C[C@@H](O)CN1 [Example 667, (2S,4R)-N-(2-(4-((3-(1-(2,2-difluoroethyl)-3-(trifluoromethyl)-1H-pyrazol-4-yl)imidazo[1,2-a]pyrazin-8-yl)amino)-2-ethylbenzamido)ethyl)-4-hydroxypyrrolidine-2-carboxamide] | 0.294
Cc1cc(Nc2nccn3c(-c4cn(CC(F)F)nc4C(F)(F)F)cnc23)cc(F)c1C(=O)N[C@H](C)CNC(=O)[C@H]1C[C@@H](N)C1 [Example 669, N-((R)-1-((1s,3S)-3-aminocyclobutane-1-carboxamido)propan-2-yl)-4-((3-(1-(2,2-difluoroethyl)-3-(trifluoromethyl)-1H-pyrazol-4-yl)imidazo[1,2-a]pyrazin-8-yl)amino)-2-fluoro-6-methylbenzamide] | 0.3
CCc1cc(Nc2nccn3c(-c4c[nH]nc4C(F)(F)F)cnc23)ccc1C(=O)NCCOCCN1CCCC1 [Example 672, 2-ethyl-N-(2-(2-(pyrrolidin-1-yl)ethoxy)ethyl)-4-((3-(3-(trifluoromethyl)-1H-pyrazol-4-yl)imidazo[1,2-a]pyrazin-8-yl)amino)benzamide] | 0.313
